Experimental data: US20240165054A1, “TREATMENT” (Verona Pharma PLC, priority 2022, published 2024)

Columns and labels:
[1] = test system: patients with moderate to severe COPD; test: Clinical study of nebulised ensifentrine vs placebo in COPD: moderate/severe COPD exacerbations; format: in vivo, human
Experimental: (§1) A clinical study was conducted to determine the efficacy of ensifentrine in treating COPD compared with placebo. Ensifentrine was administered by nebuliser at a dose of 3 mg twice daily (BID) for 24 weeks. The study was a multi-centre, randomized, double-blind, parallel-group, placebo-controlled trial with around 800 patients and 5:3 randomization.
(§2) The study population included patients aged 40-80 years with moderate to severe COPD (FEV1 30%-70% p.n., FEV1/forced vital capacity [FVC] ratio <0.7, with mMRC≥2). The randomization stratified (a) the use of stable background maintenance LAMA or LABA therapy use (approx. 50%. yes or no) and (b) cigarette smoking (current or former). Inhaled corticosteroid (ICS) maintenance therapy was permitted in up to 20% of patients under certain provisions.
(§3) The primary endpoint of the study was change from baseline in average FEV1 area under the curve (AUC)0-12 h post-dose at week 12. Secondary endpoints of the study included: peak FEV1 over 4 hours post-dose at Week 12; morning trough FEV1 at Week 12; and other endpoints including moderate/severe COPD exacerbations frequency and time to first moderate or severe COPD exacerbation over 24 Weeks.
Exacerbations were defined as worsening of 2 or more major symptoms (dyspnea, sputum volume, and sputum purulence) or worsening of any 1 major symptom together with any 1 of the following minor symptoms: sore throat, colds, fever without other cause, and increased cough or wheeze for at least 2 consecutive days. COPD exacerbations were considered to be of moderate severity if treatment with systemic corticosteroids and/or antibiotics was required and were considered to be severe if hospitalization was required.
The investigational product and placebo were provided in 2.5 mL unit dose format in an ampule and administered via a nebuliser.

[2] = test system: patients with moderate to severe COPD; test: Clinical study of nebulised ensifentrine vs placebo in COPD: lung function (FEV1); format: in vivo, human; conditions: all subgroups of COPD patients in the study
Experimental: as §1, §2, §3
Baseline FEV1 is the mean of the two measurements taken before study medication on the day of first dosing, i.e. ≤40 minutes and just prior to dosing, pre-dose on day 1. […]

COPD patients = conditions: vs placebo; population as given per drug; cited from earlier work

Row | SMILES | Reduction in relative risk of moderate or severe COPD exacerbation vs placebo ([1]; 3 mg BID by nebuliser, over 24 weeks, including 52% of patients on background bronchodilator medications) | Reduction in the frequency of COPD exacerbations compared with other treatments ([1]; comparison with literature treatments of Table 4) | Time to first exacerbation / frequency of COPD exacerbations (conclusion) ([1]; over 24 weeks) | Improvement in lung function in subgroups [2] | Rate Reduction (=1-Rate Ratio) of COPD exacerbations (COPD patients)
1 | COc1cc2c(cc1OC)-c1c/c(=N\c3c(C)cc(C)cc3C)n(CCNC(N)=O)c(=O)n1CC2 [Ensifentrine, N-(2-{(2E)-9,10-dimethoxy-4-oxo-2-[(2,4,6-trimethylphenyl)imino]-6,7-dihydro-2H-pyrimido[6,1-α]isoquinolin-3(4H)-yl}ethyl)urea] | approximately 40% | greater reduction in the frequency of COPD exacerbations than other treatments | particularly effective in increasing the time to first exacerbation | improvement in lung function with ensifentrine that was statistically significant | –
2 | CS(=O)(=O)Nc1ccc(C(=O)O[C@@H](Cc2c(Cl)c[n+]([O-])cc2Cl)c2ccc(OC(F)F)c(OCC3CC3)c2)cc1OCC1CC1 [Tanimilast] | – | – | – | – | 13-28% all doses
